The values that follow come from patent publication US20240409501A1, “CYRSTALLINE FORMS OF RIP1 INHIBITOR” (SIRONAX LTD., priority 2021, published 2024).

Holding throughout (format): physicochemical
A short description of data set [1]: Equilibrium solubility of Type A in H2O at RT. Here is the method:
Equilibrium solubility of Type A in H2O was measured at RT. Specifically, 10.0 mg of a Type A sample (817506-48-A2) was suspended into 1 mL of H2O (˜1000 rpm) at RT. After 24 hrs, the suspension was centrifuged (10000 rpm, 5 min, RT) followed by filtration (0.45 μm PTFE membrane). The supernatant (first few drops were discarded) was analyzed for HPLC solubility and pH, and the residual solids were used for XRPD analysis.
(§1) An Agilent 1290 UPLC with DAD detector and Agilent 1260 HPLC with VWD detector were use and detailed chromatographic conditions for purity and solubility analysis are listed in Table 42 and Table 43.

Data set [2] can be described thus: Solid state stability (XRPD, DSC, HPLC after storage). Conditions: for % of Initial: HPLC purity. Here is the method:
To evaluate the solid state stability, a Type A sample (817506-48-A2) was stored under 80° C. for one day, and 25° C./60% RH and 40° C./75% RH for one week each. […] DSC characterization results were shown from FIG. 35 to FIG. 37. Only one endotherm at about 95° C. was observed, indicating the solids under all the conditions were pure Type A.
as §1

Data set [3] in a line: Photo stability under white light and ultraviolet (ICH guideline). Here is the method: Photo stability of Type A (817506-48-A2) was assessed under both white light (1,200,000 Lux-hrs) and ultraviolet (200 W·hrs/m^2) conditions according to the ICH guideline. […] Only an endotherm at about 95° C. was observed on the DSC curves (FIGS. 42-43).
Data set [4] in a line: Hygroscopicity, DVS isotherm at 25° C. between 0 and 95% RH. The procedure: To investigate the solid from stability as a function of humidity, a DVS isotherm plot of Type A (817506-48-A2) was collected at 25° C. between 0 and 95% RH. […] (onset) after the DVS test.
DVS was measured Via an SMS (Surface Measurement Systems) DVS Intrinsic. The relative humidity at 25° C. was calibrated against deliquescence point of LiCl. Mg(NO3)2 and KCl.

Data set [5] is described as follows: Approximate solubility in 20 solvent systems at RT. Here is the method: Approximate solubility of N-(3,5-difluorobenzyl)-N-hydroxy-2,2-dimethylbutanamide (817506-01-A) was measured in 20 solvent systems at RT. Approximately 2 mg of the sample was added into a 3-mL glass vial. Solvents as shown in Table 36 were then added stepwise (50/50/200/700/1000 μL) into the vials until the solids were dissolved visually or a total volume of 2 mL was reached. Solubility results summarized in Table 36 were used to guide the solvent selection in preparing the solid forms as disclosed herein.

Data set [6] can be described thus: Form conversion of Type C on vacuum drying (XRPD). The following applies: vacuum dried at 50° C. The source says:
Type C of N-(3,5-difluorobenzyl)-N-hydroxy-2,2-dimethylbutanamide (817506-10-A10) was obtained via liquid vapor diffusion of a DMSO solution of a starting material (817506-01-A) in H2O atmosphere.

The mark [7] stands for this setting: White light (1,200,000 Lux-hrs).

Converted amounts (≈) assume the structure as drawn. “Also recorded” adds a separate entry of the source.

The solubility is the concentration that dissolves in the medium under given conditions. For `CCC(C)(C)C(=O)N(O)Cc1cc(F)cc(F)c1` [Type A, N-(3,5-difluorobenzyl)-N-hydroxy-2,2-dimethylbutanamide], the Form change result in data set [1] (after suspending in H2O at RT for about 24 hrs, XRPD of residual solids) is “no crystalline type change and no form change and No”. The pH in data set [1] (supernatant after suspension in H2O at RT for 24 hrs) was 8.7. In data set [1] (water, thermodynamic from solid, equilibrium solubility in H2O, RT, 24 hrs, HPLC), this compound yielded a solubility at 24 h of about 150 µg/mL (≈ 0.583 mM). For the same compound, the “Final Form” value in data set [2] (25° C./60% RH/1 w), in data set [2] (40° C./75% RH/1 w) and in data set [2] (80° C./1 d) was “Type A” in each case. The “% of Initial” value in data set [2] (25° C./60% RH/1 w), in data set [2] (40° C./75% RH/1 w) and in data set [2] (80° C./1 d) was 100.0% throughout. The “form change or decrease in purity” value in data set [2] (all conditions: 80° C. one day, 25° C./60% RH and 40° C./75% RH one week each) is reported as “No crystalline form change or HPLC purity decrease; also recorded: No form change or decrease in purity”. The Form result in data set [3] (UV (200 W·hrs/m^2)) and in data set [3] (setting [7]) was “Type A” in each case. Besides, the “Purity (area %)” value in data set [3] (UV (200 W·hrs/m^2)) and in data set [3] (setting [7]) was 100.0 area % in each case. Also, the “form change after photo stability evaluation” value in data set [3] (both white light and ultraviolet, XRPD and DSC) is recorded as “No crystalline form change or HPLC purity decrease; also recorded: no form change”. Further, the “purity decrease after photo stability evaluation” value in data set [3] (white light and ultraviolet, HPLC) is “no purity decrease”. In addition, the water uptake (DVS plot) in data set [4] (25° C./80VRH) amounted to 0.1%. Further, the “water uptake (DVS)” value in data set [4] (80% RH/25° C.) is listed as “about 0.10%”. Moreover, the hygroscopicity result in data set [4] (DVS at 25° C.) is recorded as “non-hygroscopic”. Further, the “form change after the DVS test” value in data set [4] (XRPD before and after DVS) is recorded as “no form change”.

Consider `CCC(C)(C)C(=O)N(O)Cc1cc(F)cc(F)c1` [N-(3,5-difluorobenzyl)-N-hydroxy-2,2-dimethylbutanamide], for which the solubility in data set [5] (organic solvent or mixture, thermodynamic from solid, 1,4-Dioxane, RT) was over 46 mg/mL; in data set [5] (organic solvent or mixture, thermodynamic from solid, 2-MeTHF, RT), 2.2 to 7.3 mg/mL (≈ 8.55 to 28.4 mM); in data set [5] (organic solvent or mixture, thermodynamic from solid, ACN, RT), over 50 mg/mL; in data set [5] (organic solvent or mixture, thermodynamic from solid, Acetone, RT), over 46 mg/mL; in data set [5] (organic solvent or mixture, thermodynamic from solid, CHCl3, RT), over 50 mg/mL; in data set [5] (organic solvent or mixture, thermodynamic from solid, DCM, RT), over 50 mg/mL. Moreover, the solubility in data set [5] (organic solvent or mixture, thermodynamic from solid, DMAc, RT) was 21 to 42 mg/mL (≈ 81.6 to 163 mM); in data set [5] (organic solvent or mixture, thermodynamic from solid, DMSO, RT), over 42 mg/mL; in data set [5] (organic solvent or mixture, thermodynamic from solid, EtOAc, RT), over 44 mg/mL; in data set [5] (organic solvent or mixture, thermodynamic from solid, EtOH, RT) it was over 40 mg/mL; in data set [5] (organic solvent or mixture, thermodynamic from solid, IPA, RT), over 42 mg/mL; in data set [5] (organic solvent or mixture, thermodynamic from solid, IPAC, RT), over 50 mg/mL. For the same compound, the solubility was over 50 mg/mL in data set [5] (organic solvent or mixture, thermodynamic from solid, MIBK, RT); 2.3 to 7.7 mg/mL (≈ 8.94 to 29.9 mM) in data set [5] (organic solvent or mixture, thermodynamic from solid, MTBE, RT); over 46 mg/mL in data set [5] (organic solvent or mixture, thermodynamic from solid, MeOH, RT); 2.4 to 48 mg/mL (≈ 9.33 to 187 mM) in data set [5] (organic solvent or mixture, thermodynamic from solid, NMP, RT); 25 to 50 mg/mL (≈ 97.2 to 194 mM) in data set [5] (organic solvent or mixture, thermodynamic from solid, THF, RT); 20 to 40 mg/mL (≈ 77.7 to 155 mM) in data set [5] (organic solvent or mixture, thermodynamic from solid, Toluene, RT). The solubility in data set [5] (organic solvent or mixture, thermodynamic from solid, n-Heptane, RT) was under 1 mg/mL; in data set [5] (water, thermodynamic from solid, H2O, RT) it was under 1.3 mg/mL.

With `CCC(C)(C)C(=O)N(O)Cc1cc(F)cc(F)c1` [Type C, N-(3,5-difluorobenzyl)-N-hydroxy-2,2-dimethylbutanamide], the form after drying entry in data set [6] is listed as “converted to Type A”.
